One may read the melting point as the temperature of the solid-liquid transition. Turning to `O=C(NCC(F)(F)F)C1(CCCCN2CCN(c3ccc4c(Cl)cccc4n3)CC2)c2ccccc2-c2ccccc21` [Example 27, 9-{4-[4-(5-chloro-quinolin-2-yl)-piperazin-1-yl]-butyl}-9H-fluorene-9-carboxylic acid-(2,2,2-trifluoro-ethyl)-amide], the melting point was in the range of 142 to 143 °C.

Compound `CCCNC(=O)C1(CCCCN2CCN(c3nc4ccccc4n3C)CC2)c2ccccc2-c2ccccc21` [Example 91, 9-{4-[4-(1-methyl-1H-benzimidazol-2-yl)-piperazin-1-yl]-butyl}-9H-fluorene-9-carboxylic acid propylamide] yielded a melting point of 126 °C.

In turn, `C[C@@H]1CN(c2ncc3ccccc3n2)C[C@H](C)N1CCCCC1(C(=O)NCc2ccc(F)cc2)c2ccccc2-c2ccccc21` [Example 67, 9-[4-(cis-2,6-dimethyl-4-quinazoline-2-yl-piperazin-1-yl)-butyl]-9H-fluorene-9-carboxylic acid-4-fluoro-benzylamide] gave a melting point of 172 °C.

In the case of `C[C@@H]1CN(c2nc3ccccc3s2)C[C@H](C)N1CCCCC1(C(=O)NCC(F)(F)F)c2ccccc2-c2ccccc21` [Example 45, 9-[4-(4-benzothiazole-2-yl-cis-2,6-dimethyl-piperazin-1-yl)-butyl]-9H-fluorene-9-carboxylic acid-(2,2,2-trifluoro-ethyl)-amide], the melting point lay in the range of 163 to 165 °C.

`O=C(NCC(F)(F)F)C1(CCCCN2CCN(c3ccc4ccccc4n3)CC2)c2ccccc2Oc2ccccc21` [Example 103, 9-[4-(4-quinolin-2-yl-piperazin-1-yl)-butyl]-9H-xanthene-9-carboxylic acid-(2,2,2-trifluoro-ethyl)-amide] had a melting point of 178 °C.

Turning to `C[C@@H]1CN(c2nc3ccccc3o2)C[C@H](C)N1CCCCC1(C(=O)NCC(F)(F)F)c2ccccc2-c2ccccc21` [Example 46, 9-[4-(4-benzoxazol-2-yl-cis-2,6-dimethyl-piperazin-1-yl)-butyl]-9H-fluorene-9-carboxylic acid-(2,2,2-trifluoro-ethyl)-amide], the melting point was in the range of 163 to 165 °C.

`O=C(NCC(F)(F)C(F)(F)F)C1(CCCCN2CCN(c3ccc4ccccc4n3)CC2)c2ccccc2-c2ccccc21` [Example 86, 9-[4-(4-quinolin-2-yl-piperazin-1-yl)-butyl]-9H-fluorene-9-carboxylic acid-(2,2,3,3,3-pentafluoro-propyl)-amide] registered a melting point of 120 °C.

`O=C(NCc1ccc(F)cc1)C1(CCCCN2CCN(c3ncc4ccccc4n3)CC2)c2ccccc2-c2ccccc21` [Example 58, 9-[4-(4-quinazolin-2-yl-piperazin-1-yl)-butyl]-9H-fluorene-9-carboxylic acid-4-fluoro-benzylamide]: the melting point came out at 160 °C.

In turn, `O=C(NCC(F)(F)F)C1(CCCCN2CCN(c3cnc4c(Cl)cccc4n3)CC2)c2ccccc2-c2ccccc21` [Example 23, 9-{4-[4-(5-chloro-quinoxalin-2-yl)-piperazin-1-yl]-butyl}-9H-fluorene-9-carboxylic acid-(2,2,2-trifluoro-ethyl)-amide] registered a melting point of 74 °C.

As for `O=C(NCc1ccc(F)cc1F)C1(CCCCN2CCN(c3ccc4ccccc4n3)CC2)c2ccccc2-c2ccccc21` [Example 84, 9-[4-(4-quinolin-2-yl-piperazin-1-yl)-butyl]-9H-fluorene-9-carboxylic acid-2,4-difluoro-benzylamide], the melting point lay in the range of 116 to 118 °C.

Compound `O=C(NCC(F)(F)F)C1(CCCN2CCN(c3nc4ccccc4s3)CC2)c2ccccc2-c2ccccc21` [Example 122, 9-[3-(4-benzothiazol-2-yl-piperazin-1-yl)-propyl]-9H-fluorene-9-carboxylic acid-(2,2,2-trifluoro-ethyl)-amide] returned a melting point of 68 °C.

`C[C@@H]1CN(c2ccc3ccccc3n2)C[C@H](C)N1CCCCC1(C(=O)NCc2ccc(F)c(F)c2)c2ccccc2-c2ccccc21` [Example 98, 9-[4-(cis-2,6-dimethyl-4-quinolin-2-yl-piperazin-1-yl)-butyl]-9H-fluorene-9-carboxylic acid-3,4-difluoro-benzylamide]: the melting point was found to be 162 °C.

Compound `COc1ccc(CNC(=O)C2(CCCCN3CCN(c4ccc5c(Cl)cccc5n4)CC3)c3ccccc3-c3ccccc32)cc1` [Example 73, 9-{4-[4-(5-chloro-quinolin-2-yl)-piperazin-1-yl]-butyl}-9H-fluorene-9-carboxylic acid-4-methoxy-benzylamide] had a melting point of 135 to 136 °C.

Turning to `COC(=O)CCNC(=O)C1(CCCCN2CCN(c3ccc4ccccc4n3)CC2)c2ccccc2-c2ccccc21` [Example 94, 9-[4-(4-quinolin-2-yl-piperazin-1-yl)-butyl]-9H-fluorene-9-carboxylic acid-(2-methoxycarbonyl-ethyl)-amide], the melting point fell in the range of 110 to 112 °C.

With `O=C(NCc1ccc(F)cc1)C1(CCCCN2CCN(c3ccc4c(Cl)cccc4n3)CC2)c2ccccc2-c2ccccc21` [Example 54, 9-{4-[4-(5-chloro-quinolin-2-yl)-piperazin-1-yl]-butyl}-9H-fluorene-9-carboxylic acid-4-fluoro-benzylamide], the melting point was 140 °C.

With `C[C@@H]1CN(c2nc3ccccc3s2)C[C@H](C)N1CCCCC1(C(=O)NCC(F)(F)F)c2ccccc2Oc2ccccc21` [Example 110, 9-[4-(4-benzothiazol-2-yl-cis-2,6-dimethyl-piperazin-1-yl)-butyl]-9H-xanthene-9-carboxylic acid-(2,2,2-trifluoro-ethyl)-amide], the melting point was determined as 157 °C.

Take `Cn1c(N2CCN(CCCCC3(C(=O)NCC(F)(F)F)c4ccccc4-c4ccccc43)CC2)nc2cc(Cl)ccc21` [Example 19, 9-{4-[4-(5-chloro-1-methyl-1H-benzimidazol-2-yl)-piperazin-1-yl]-butyl}-9H-fluorene-9-carboxylic acid-(2,2,2-trifluoro-ethyl)-amide]: the melting point was found to be 155 °C.

As to `C[C@@H]1CN(c2ccc3ccccc3n2)CCN1CCCCC1(C(=O)NCC(F)(F)F)c2ccccc2-c2ccccc21` [Example 39, 9-{4-[(R)-2-methyl-4-quinolin-2-yl-piperazin-1-yl]-butyl}-9H-fluorene-9-carboxylic acid-(2,2,2-trifluoro-ethyl)-amide], the melting point was found to be 102 °C.

The compound `O=C(NCC(F)(F)F)C1(CCCCN2CCN(c3nc4ccc(Cl)cc4s3)CC2)c2ccccc2-c2ccccc21` [Example 24, 9-{4-[4-(6-chloro-benzothiazol-2-yl)-piperazin-1-yl]-butyl}-9H-fluorene-9-carboxylic acid-(2,2,2-trifluoro-ethyl)-amide] returned a melting point of 187 °C.

For `COc1ccc(CNC(=O)C2(CCCCN3CCN(c4ccc5ccccc5n4)CC3)c3ccccc3-c3ccccc32)cc1OC` [Example 83, 9-[4-(4-quinolin-2-yl-piperazin-1-yl)-butyl]-9H-fluorene-9-carboxylic acid-3,4-dimethoxy-benzylamide], the melting point amounted to 118 °C.

For the compound `O=C(NCC(F)(F)F)C1(CCCCN2CCN(c3ccc4ccccc4n3)CC2)c2ccccc2-c2ccccc21` [Example 3, 9-[4-(4-(quinolin-2-yl)-piperazin-1-yl)-butyl]-9H-fluorene-9-carboxylic acid-(2,2,2-trifluoro-ethyl)-amide], the melting point is 56 to 57 °C.

Compound `Cn1c(N2CCN(CCCCC3(C(=O)NCC(F)(F)F)c4ccccc4-c4ccccc43)CC2)nc2cccnc21` [Example 15, 9-{4-[4-(3-methyl-3H-imidazo[4,5]pyridin-2-yl)-piperazin-1-yl]-butyl}-9H-fluorene-9-carboxylic acid-(2,2,2-trifluoro-ethyl)-amide] gave a melting point of 60 °C.

Compound `O=C(NCc1ccncc1)C1(CCCCN2CCN(c3ccc4ccccc4n3)CC2)c2ccccc2-c2ccccc21` [Example 88, 9-[4-(4-quinolin-2-yl-piperazin-1-yl)-butyl]-9H-fluorene-9-carboxylic acid-(pyridin-4-ylmethyl)-amide] returned a melting point of 166 to 168 °C.

On to `O=C(NCC(F)(F)F)C1(CCCCN2CCN(c3ccc4cccc(Br)c4n3)CC2)c2ccccc2-c2ccccc21` [Example 32, 9-{4-[4-(8-bromo-quinolin-2-yl)-piperazin-1-yl]-butyl}-9H-fluorene-9-carboxylic acid-(2,2,2-trifluoro-ethyl)-amide], for which the melting point came out at 66 °C.

For `COc1cccc2ccc(N3CCN(CCCCC4(C(=O)NCC(F)(F)F)c5ccccc5-c5ccccc54)CC3)nc12` [Example 36, 9-{4-[4-(8-methoxy-quinolin-2-yl)-piperazin-1-yl]-butyl}-9H-fluorene-9-carboxylic acid-(2,2,2-trifluoro-ethyl)-amide], the melting point came out at 67 °C.

Take `C[C@H]1CN(c2ccc3ccccc3n2)CCN1CCCCC1(C(=O)NCc2ccc(F)cc2)c2ccccc2-c2ccccc21` [Example 64, 9-{4-[(S)-2-methyl-4-quinolin-2-yl-piperazin-1-yl]-butyl}-9H-fluorene-9-carboxylic acid-4-fluoro-benzylamide]: the melting point amounted to 124 °C.

With `Cn1c(N2CCN(CCCCC3(C(=O)NCc4ccc(F)cc4)c4ccccc4-c4ccccc43)CC2)nc2cccnc21` [Example 63, 9-{4-[4-(3-methyl-3H-imidazo[4,5]-pyridin-2-yl)-piperazin-1-yl]-butyl}-9H-fluorene-9-carboxylic acid-4-fluoro-benzylamide], the melting point worked out at 153 °C.

The compound `COc1cccc2ccc(N3CCN(CCCCC4(C(=O)NCC(F)(F)F)c5ccccc5-c5ccccc54)CC3)nc12` [Example 30, 9-{4-[4-(8-methoxy-quinolin-2-yl)-piperazin-1-yl]-butyl}-9H-fluorene-9-carboxylic acid-(2,2,2-trifluoro-ethyl)-amide] displayed a melting point of 74 °C.

The compound `COc1ccc(CNC(=O)C2(CCCCN3CCN(c4ncc5ccccc5n4)CC3)c3ccccc3-c3ccccc32)cc1` [Example 74, 9-[4-(4-quinazolin-2-yl-piperazin-1-yl)-butyl]-9H-fluorene-9-carboxylic acid-4-methoxy-benzylamide] gave a melting point of 143 to 144 °C.

The values above are taken from patent publication US6821967B2, “Substituted piperazine derivatives, the preparation thereof and their use as medicaments” (Boehringer Ingelheim Pharma KG, priority 1999, dated 2004).
